Assay results as given in ChEMBL document CHEMBL5523761 (J Med Chem, 2024).
One block for each compound: values may come before it.

Experiments:
D(2) dopamine receptor [1] = target: T1, D(2) dopamine receptor (Homo sapiens, UniProt P14416)
Description: Antagonist activity at D2 receptor (unknown origin)

D(1A) dopamine receptor [2] = target: T2, D(1A) dopamine receptor (Homo sapiens, UniProt P21728)
Description: Binding affinity to D1 receptor (unknown origin) assessed as inhibition constant

[3] = target: T3, Alpha-1A adrenergic receptor (Homo sapiens, UniProt P35348)
T3 sequence (P35348 whole entry): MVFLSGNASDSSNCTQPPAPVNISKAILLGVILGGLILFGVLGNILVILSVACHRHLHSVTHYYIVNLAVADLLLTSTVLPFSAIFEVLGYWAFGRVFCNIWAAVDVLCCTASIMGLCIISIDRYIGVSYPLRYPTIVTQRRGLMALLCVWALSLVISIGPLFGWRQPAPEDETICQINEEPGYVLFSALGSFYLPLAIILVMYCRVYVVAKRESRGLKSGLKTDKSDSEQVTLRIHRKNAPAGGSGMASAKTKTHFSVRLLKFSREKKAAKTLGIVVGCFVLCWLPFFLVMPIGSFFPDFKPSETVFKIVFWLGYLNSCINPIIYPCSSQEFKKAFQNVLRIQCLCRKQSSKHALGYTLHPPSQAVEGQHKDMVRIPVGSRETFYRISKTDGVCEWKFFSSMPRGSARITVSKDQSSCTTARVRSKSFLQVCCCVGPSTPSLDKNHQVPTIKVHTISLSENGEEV
Description: Binding affinity to alpha1A adrenergic receptor (unknown origin) assessed as inhibition constant

D(2) dopamine receptor [4] = target: T1, D(2) dopamine receptor; remark: listed apart in the source
Description: Binding affinity to D2 receptor (unknown origin) assessed as inhibition constant

D(2) dopamine receptor [5] = target: T1, D(2) dopamine receptor; remark: listed apart in the source
Description: Binding affinity to D2L receptor (unknown origin) assessed as inhibition constant

D(3) dopamine receptor [6] = target: T4, D(3) dopamine receptor (Homo sapiens, UniProt P35462)
Description: Inhibition of D3 receptor (unknown origin)

Vasopressin V1a receptor = Vasopressin V1a receptor (Homo sapiens, UniProt P37288)
Description: Inhibition of Vasopressin V1A receptor (unknown origin)

D(2) dopamine receptor [7] = target: T1, D(2) dopamine receptor; remark: listed apart in the source
Description: Inhibition of D2 receptor (unknown origin)

D(1A) dopamine receptor [8] = target: T2, D(1A) dopamine receptor; remark: listed apart in the source
Description: Inhibition of D1 receptor (unknown origin)

D(2) dopamine receptor [9] = target: T1, D(2) dopamine receptor; remark: listed apart in the source
Description: Binding affinity to D2S receptor (unknown origin) assessed as inhibition constant

D(3) dopamine receptor [10] = target: T4, D(3) dopamine receptor; remark: listed apart in the source
Description: Binding affinity to D3 receptor (unknown origin) assessed as inhibition constant

[11] = target: T5, 5-hydroxytryptamine receptor 2C (Homo sapiens, UniProt P28335)
T5 sequence (P28335 whole entry): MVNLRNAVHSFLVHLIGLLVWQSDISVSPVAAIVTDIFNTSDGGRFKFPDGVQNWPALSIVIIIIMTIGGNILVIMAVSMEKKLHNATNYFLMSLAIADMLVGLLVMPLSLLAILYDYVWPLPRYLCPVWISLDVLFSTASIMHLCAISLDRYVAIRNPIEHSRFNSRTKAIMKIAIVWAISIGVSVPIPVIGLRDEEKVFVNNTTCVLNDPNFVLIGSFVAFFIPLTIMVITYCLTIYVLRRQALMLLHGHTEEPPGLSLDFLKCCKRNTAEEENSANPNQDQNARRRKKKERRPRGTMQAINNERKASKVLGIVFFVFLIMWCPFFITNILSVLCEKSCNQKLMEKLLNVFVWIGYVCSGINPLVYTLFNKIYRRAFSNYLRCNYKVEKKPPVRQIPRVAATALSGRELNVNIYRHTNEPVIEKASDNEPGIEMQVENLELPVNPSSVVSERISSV
Description: Binding affinity to 5HT2C receptor (unknown origin) assessed as inhibition constant

[12] = target: 5-hydroxytryptamine receptor 1B (Homo sapiens, UniProt P28222)
Description: Binding affinity to 5HT1B receptor (unknown origin) assessed as inhibition constant

[13] = target: 5-hydroxytryptamine receptor 1D (Homo sapiens, UniProt P28221)
Description: Binding affinity to 5HT1D receptor (unknown origin) assessed as inhibition constant

[14] = target: T6, Alpha-2C adrenergic receptor (Homo sapiens, UniProt P18825)
T6 sequence (P18825 whole entry): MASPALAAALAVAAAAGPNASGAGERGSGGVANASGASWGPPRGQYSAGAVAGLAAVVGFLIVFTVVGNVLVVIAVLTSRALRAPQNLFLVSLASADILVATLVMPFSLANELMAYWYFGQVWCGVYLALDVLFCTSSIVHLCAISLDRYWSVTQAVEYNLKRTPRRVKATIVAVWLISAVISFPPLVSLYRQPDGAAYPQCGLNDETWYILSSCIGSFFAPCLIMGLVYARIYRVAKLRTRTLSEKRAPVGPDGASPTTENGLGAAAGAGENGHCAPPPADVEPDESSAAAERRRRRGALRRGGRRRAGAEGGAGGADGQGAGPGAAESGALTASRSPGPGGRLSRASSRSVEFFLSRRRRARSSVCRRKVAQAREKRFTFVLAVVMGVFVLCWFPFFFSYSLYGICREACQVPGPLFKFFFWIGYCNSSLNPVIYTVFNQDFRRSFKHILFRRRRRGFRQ
Description: Binding affinity to alpha2C adrenergic receptor (unknown origin) assessed as inhibition constant

[15] = target: 5-hydroxytryptamine receptor 2A (Homo sapiens, UniProt P28223)
Description: Binding affinity to 5HT2A (unknown origin) assessed as inhibition constant

[16] = target: 5-hydroxytryptamine receptor 7 (Homo sapiens, UniProt P34969)
Description: Binding affinity to 5HT7 receptor (unknown origin) assessed as inhibition constant

D(4) dopamine receptor = target: T7, D(4) dopamine receptor (Homo sapiens, UniProt P21917)
T7 sequence (P21917 whole entry): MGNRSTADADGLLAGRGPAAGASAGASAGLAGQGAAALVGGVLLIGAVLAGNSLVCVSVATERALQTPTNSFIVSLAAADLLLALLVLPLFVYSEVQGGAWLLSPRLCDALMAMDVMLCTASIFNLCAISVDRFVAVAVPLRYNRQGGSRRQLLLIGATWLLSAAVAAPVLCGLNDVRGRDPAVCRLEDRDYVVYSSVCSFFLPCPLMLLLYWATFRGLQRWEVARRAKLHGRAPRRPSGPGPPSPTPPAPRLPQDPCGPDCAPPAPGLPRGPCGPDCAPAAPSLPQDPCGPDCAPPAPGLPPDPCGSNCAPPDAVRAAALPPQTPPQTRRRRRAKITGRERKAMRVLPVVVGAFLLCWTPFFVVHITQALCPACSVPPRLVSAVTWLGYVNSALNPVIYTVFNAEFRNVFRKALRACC
Description: Binding affinity to D4 receptor (unknown origin) assessed as inhibition constant

T4 sequence (P35462 whole entry): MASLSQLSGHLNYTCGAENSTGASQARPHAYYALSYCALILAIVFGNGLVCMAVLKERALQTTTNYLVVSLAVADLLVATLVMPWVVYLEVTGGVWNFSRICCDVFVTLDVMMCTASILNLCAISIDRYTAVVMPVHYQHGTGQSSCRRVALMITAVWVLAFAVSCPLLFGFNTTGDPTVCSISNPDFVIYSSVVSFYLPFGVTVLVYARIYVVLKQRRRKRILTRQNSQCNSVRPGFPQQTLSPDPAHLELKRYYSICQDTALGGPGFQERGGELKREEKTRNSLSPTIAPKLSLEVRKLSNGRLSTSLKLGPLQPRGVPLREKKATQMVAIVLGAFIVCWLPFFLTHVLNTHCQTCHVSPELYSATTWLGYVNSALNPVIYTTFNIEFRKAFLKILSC
T2 sequence (P21728 whole entry): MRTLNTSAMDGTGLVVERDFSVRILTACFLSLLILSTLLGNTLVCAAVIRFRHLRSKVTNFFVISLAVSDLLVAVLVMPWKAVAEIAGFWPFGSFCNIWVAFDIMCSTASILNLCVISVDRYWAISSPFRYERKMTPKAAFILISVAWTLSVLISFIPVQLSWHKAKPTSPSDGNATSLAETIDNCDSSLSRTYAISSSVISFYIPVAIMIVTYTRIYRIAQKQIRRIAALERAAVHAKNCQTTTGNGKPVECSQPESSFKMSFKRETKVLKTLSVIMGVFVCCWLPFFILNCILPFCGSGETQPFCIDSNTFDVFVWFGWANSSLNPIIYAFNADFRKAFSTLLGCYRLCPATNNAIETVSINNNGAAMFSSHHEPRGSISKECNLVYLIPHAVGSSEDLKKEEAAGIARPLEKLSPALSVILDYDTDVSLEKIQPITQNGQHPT
T1 sequence (P14416 whole entry): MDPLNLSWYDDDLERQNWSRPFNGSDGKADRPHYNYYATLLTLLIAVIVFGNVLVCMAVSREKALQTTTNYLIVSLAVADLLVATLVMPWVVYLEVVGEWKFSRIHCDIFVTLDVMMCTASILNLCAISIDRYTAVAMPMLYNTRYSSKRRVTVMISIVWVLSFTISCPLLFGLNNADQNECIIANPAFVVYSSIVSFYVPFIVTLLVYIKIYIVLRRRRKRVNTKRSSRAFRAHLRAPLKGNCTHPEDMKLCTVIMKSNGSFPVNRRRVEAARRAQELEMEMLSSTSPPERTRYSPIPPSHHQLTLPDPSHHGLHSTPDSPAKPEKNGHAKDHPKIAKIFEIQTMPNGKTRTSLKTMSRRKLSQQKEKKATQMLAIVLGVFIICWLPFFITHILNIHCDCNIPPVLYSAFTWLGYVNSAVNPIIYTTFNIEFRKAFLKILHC
5-hydroxytryptamine receptor 7, sequence (P34969 whole entry): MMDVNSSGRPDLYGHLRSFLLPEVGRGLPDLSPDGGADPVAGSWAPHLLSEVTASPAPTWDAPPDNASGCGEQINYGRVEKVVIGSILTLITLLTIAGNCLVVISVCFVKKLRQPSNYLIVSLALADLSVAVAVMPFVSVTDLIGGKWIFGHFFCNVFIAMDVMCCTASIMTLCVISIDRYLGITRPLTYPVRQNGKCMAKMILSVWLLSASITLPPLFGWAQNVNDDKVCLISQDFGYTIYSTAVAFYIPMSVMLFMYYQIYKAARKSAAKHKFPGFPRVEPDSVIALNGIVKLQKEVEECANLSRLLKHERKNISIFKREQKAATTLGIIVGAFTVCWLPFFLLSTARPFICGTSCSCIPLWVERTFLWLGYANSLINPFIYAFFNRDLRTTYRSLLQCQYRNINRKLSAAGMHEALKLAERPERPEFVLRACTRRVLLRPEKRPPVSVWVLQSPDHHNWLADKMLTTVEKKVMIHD
Vasopressin V1a receptor, sequence (P37288 whole entry): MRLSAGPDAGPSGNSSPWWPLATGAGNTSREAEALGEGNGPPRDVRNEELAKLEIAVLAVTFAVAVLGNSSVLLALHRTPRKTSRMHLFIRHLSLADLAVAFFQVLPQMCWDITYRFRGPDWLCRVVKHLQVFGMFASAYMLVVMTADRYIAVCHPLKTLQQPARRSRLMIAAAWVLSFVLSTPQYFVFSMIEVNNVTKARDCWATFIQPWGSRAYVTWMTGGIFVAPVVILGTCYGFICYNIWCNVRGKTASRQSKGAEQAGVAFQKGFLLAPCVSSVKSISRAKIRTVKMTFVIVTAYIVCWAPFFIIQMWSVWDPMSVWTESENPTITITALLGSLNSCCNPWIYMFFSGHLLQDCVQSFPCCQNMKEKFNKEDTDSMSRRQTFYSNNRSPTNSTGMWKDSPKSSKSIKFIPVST
5-hydroxytryptamine receptor 1D, sequence (P28221 whole entry): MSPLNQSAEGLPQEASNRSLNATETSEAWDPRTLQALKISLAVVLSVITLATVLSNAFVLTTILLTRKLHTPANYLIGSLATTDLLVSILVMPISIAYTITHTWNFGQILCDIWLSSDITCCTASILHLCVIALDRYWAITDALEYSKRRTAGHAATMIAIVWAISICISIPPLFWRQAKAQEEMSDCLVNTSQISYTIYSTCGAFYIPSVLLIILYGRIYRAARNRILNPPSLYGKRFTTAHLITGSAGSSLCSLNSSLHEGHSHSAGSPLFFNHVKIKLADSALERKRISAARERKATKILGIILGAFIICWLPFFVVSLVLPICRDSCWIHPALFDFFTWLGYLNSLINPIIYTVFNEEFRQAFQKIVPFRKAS
5-hydroxytryptamine receptor 1B, sequence (P28222 whole entry): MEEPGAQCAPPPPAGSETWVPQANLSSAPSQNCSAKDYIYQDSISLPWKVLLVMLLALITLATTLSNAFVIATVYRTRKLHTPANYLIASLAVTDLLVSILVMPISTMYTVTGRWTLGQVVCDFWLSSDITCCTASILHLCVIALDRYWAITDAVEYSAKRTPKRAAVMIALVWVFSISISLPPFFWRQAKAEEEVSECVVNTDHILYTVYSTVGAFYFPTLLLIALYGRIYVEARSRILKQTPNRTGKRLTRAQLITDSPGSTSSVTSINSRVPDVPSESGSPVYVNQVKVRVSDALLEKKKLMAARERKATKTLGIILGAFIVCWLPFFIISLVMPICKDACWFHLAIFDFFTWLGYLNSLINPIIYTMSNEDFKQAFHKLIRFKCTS
5-hydroxytryptamine receptor 2A, sequence (P28223 whole entry): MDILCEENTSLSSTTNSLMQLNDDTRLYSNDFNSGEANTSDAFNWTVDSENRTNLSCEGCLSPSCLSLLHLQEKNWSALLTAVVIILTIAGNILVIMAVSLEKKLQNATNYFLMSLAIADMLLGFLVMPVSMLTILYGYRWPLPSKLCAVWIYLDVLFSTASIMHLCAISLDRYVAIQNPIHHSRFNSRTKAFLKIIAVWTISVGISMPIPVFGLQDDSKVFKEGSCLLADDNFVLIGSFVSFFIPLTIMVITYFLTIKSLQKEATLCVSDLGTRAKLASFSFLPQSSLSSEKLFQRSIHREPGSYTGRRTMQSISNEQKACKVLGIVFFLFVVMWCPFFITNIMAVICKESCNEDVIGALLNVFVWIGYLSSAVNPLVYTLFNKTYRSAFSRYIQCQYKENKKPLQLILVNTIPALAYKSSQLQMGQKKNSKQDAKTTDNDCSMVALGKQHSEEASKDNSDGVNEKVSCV

SMILES: COc1cc2c(cc1OC)-c1c(OC)c(OC)cc3c1[C@H](C2)N(C)CC3 [GLAUCINE]
IC50 (D(2) dopamine receptor [1]): 3020 nM

SMILES: CC(C)C[C@H]1C(=O)N2CCC[C@H]2[C@]2(O)O[C@](NC(=O)[C@@H]3C=C4c5cccc6[nH]c(Br)c(c56)C[C@H]4N(C)C3)(C(C)C)C(=O)N12 [BROMOCRIPTINE]
Ki (D(1A) dopamine receptor [2]): 3420 nM | Ki [3]: 18 nM

SMILES: O=C(/C=C/c1ccc(O)cc1)c1ccc(O)cc1O [ISOLIQUIRITIGENIN]
IC50 (D(3) dopamine receptor [6]): 62300 nM | IC50 (Vasopressin V1a receptor): 78600 nM

SMILES: COc1ccc(C[C@H]2c3cc(O)c(OC)cc3CCN2C)cc1O [(S)-RETICULINE]
IC50 (D(2) dopamine receptor [7]): 470 nM | IC50 (D(1A) dopamine receptor [8]): 1800 nM

SMILES: CCN1CCc2cc(OCCF)cc3c2[C@H]1Cc1cccc(O)c1-3
Ki (D(1A) dopamine receptor [2]): 0.83 nM

SMILES: CCCN1CCc2cc(OCCCF)cc3c2[C@H]1Cc1cccc(O)c1-3
Ki (D(1A) dopamine receptor [2]): 0.54 nM

Second part, the compound after the results:

Ki (D(2) dopamine receptor [4]): 0.36 nM | Ki (D(1A) dopamine receptor [2]): 3800 nM | Ki (D(2) dopamine receptor [5]): 0.36 nM
SMILES: C=CCN1C[C@H](C(=O)N(CCCN(C)C)C(=O)NCC)C[C@@H]2c3cccc4[nH]cc(c34)C[C@H]21 [CABERGOLINE]

Ki (D(2) dopamine receptor [4]): 388 nM | Ki (D(1A) dopamine receptor [2]): 124 nM
SMILES: COc1cc2c(cc1OC)[C@@H]1Cc3ccc(OC)c(OC)c3CN1CC2 [TETRAHYDROPALMATINE]

IC50 (D(2) dopamine receptor [7]): 220 nM | IC50 (D(1A) dopamine receptor [8]): 100 nM
SMILES: COc1cc2c(cc1O)C[C@@H]1c3c(ccc(O)c3O2)CCN1C

Ki (D(2) dopamine receptor [9]): 708 nM | Ki (D(1A) dopamine receptor [2]): 8.75 nM | Ki (D(3) dopamine receptor [10]): 606 nM
SMILES: COC1=CC2C[C@@H]3c4cc(O)c(OC)cc4CCN3CC2C=C1O (some centres not stated)

Ki [11]: 19 nM | Ki (D(2) dopamine receptor [4]): 1.6 nM | Ki [12]: 111 nM | Ki (D(1A) dopamine receptor [2]): 554 nM | Ki [13]: 7.3 nM | Ki [14]: 2.7 nM | Ki [15]: 0.83 nM | Ki [3]: 11 nM | Ki (D(3) dopamine receptor [10]): 7.5 nM | Ki [16]: 6.8 nM
SMILES: Cc1nc2n(c(=O)c1CCN1CCC(c3noc4cc(F)ccc34)CC1)CCCC2O (configuration not stated) [PALIPERIDONE]

IC50 (D(2) dopamine receptor [7]): 30 nM | IC50 (D(1A) dopamine receptor [8]): 60 nM
SMILES: COc1cc2c(cc1O)Oc1c(O)ccc3c1[C@H](C2)N(C)CC3 [CELTISINE]

Ki [3]: 888 nM
SMILES: CCCN1C[C@H](CSC)C[C@@H]2c3cccc4[nH]cc(c34)C[C@H]21 [PERGOLIDE]

Ki (D(2) dopamine receptor [9]): 514 nM
SMILES: COc1cc2c(cc1O)CN1CCc3cc(OC)c(O)cc3[C@@H]1C2

Ki (D(4) dopamine receptor): 1450 nM | Ki (D(2) dopamine receptor [4]): 11.6 nM | Ki (D(1A) dopamine receptor [2]): 5.1 nM | Ki (D(3) dopamine receptor [10]): 23.4 nM
SMILES: COc1cc2c(cc1O)[C@@H]1Cc3ccc(O)c(OC)c3CN1CC2 [STEPHOLIDINE]
